Laboratory results from patent US9192688B2 (priority 2009, dated 2015).
Like-named read-outs stand apart in the source and are kept apart here.

Key:
[1] = tested on: test organisms (Bacillus cereus, Staphylococcus aureus, Salmonella typhimurium, Escherichia coli, Saccharomyces cerevisiae, bacteriophage); conditions: for effect on viable count of test organisms: 5 kg meat
model prion protein = conditions: T5 protocol; 5 g meat, 20% moisture, 100 ug model prion protein

For `OO` [gaseous hydrogen peroxide, hydrogen peroxide], the “effect on viable count of test organisms” value ([1]; trial T1: 30 ml 30% (v/v) H2O2 vaporised, 2.6 g/kg, 0.01 g/kg/s, 30 minutes contact, about 0.01 kPa) was “little or no effect”, the “effect on viable count of test organisms” value ([1]; trial T2: 60 ml 30% (v/v) H2O2 vaporised, 0.01 g/kg/s, 30 minutes contact) was “little or no effect” and the “effect on the organisms” value ([1]; trial T3: 90 ml 30% (v/v) H2O2, 7.9 g/kg meat, 0.01 g/kg/s, 30 minutes contact) was “significant effect”. The “inactivation compared with T3 on increasing the contact rate” value ([1]; trial T5: 30 ml introduced rapidly over about 5 seconds (0.5 g/kg/s), then 60 ml at 0.01 g/kg/s) was “enhanced”, the “inactivation of S. cerevisiae” value (S. cerevisiae) was “particularly striking effect” and the “prion content after treatment versus positive control” value (model prion protein) was “significantly destroyed”. The “effect on viable count” value (S. typhimurium) was “elimination”, the “effect on viable count” value (S. aureus) was “elimination” and the “effect on viable count” value (E. coli) was “elimination”. For the same molecule, the “effect on viable count” value (mesophilic organisms) was “elimination”.
